Experimental data reported in patent US7122624B2, “Parathyroid hormone receptor ligands” (The United States of America as represented by the …, priority 1999, dated 2006).
Where two headings read alike, the source gives them in different places. Blank lines part the entries; values can stand above or below the compound they belong to. Non-standard residues stand in square brackets, D forms with d. Residues, ends and D or L forms follow the SMILES beside them. Nle = CCCC[C@H](N)C(=O)O

Tests used:
[1] = target: T1, rat PTH2 receptor (Rattus norvegicus, UniProt P70555); experiment: cAMP accumulation in COS-7 cells transiently expressing the rat PTH2 receptor; assay type: cell-based
T1 construct: expressed in transfected cells; host or cells: COS-7 (transient)
Method: To express rat PTH2 receptor in cell culture, a rat hypothalamus cDNA library was prepared in the vector CDM7 amp as described. […] A clone was isolated from a single positive pool by colony hybridization using the same ^32P labeled probe.
(§1) Cell culture supplies were obtained from Life Technologies (Frederick, Md.) except for fetal bovine serum which was from Sigma (St. Louis, Mo.).
(§2) The constructs containing the cDNA sequences of the human PTH2 receptor and β-galactosidase have been previously described.
(§3) All peptides were purchased from either Bachem (Torrance, Calif.) or Peninsula Laboratories (Belmont, Calif.). The letters ‘b,’ ‘r’ and ‘h’ designate the peptide sequence as bovine, rat and human, respectively. […] [α-^32P]dCTP was purchased from ICN Biomedicals (Costa Mesa, Calif.). Bovine hypothalamic extract was prepared by acid extraction, gel-filtration and reverse-phase HPLC as previously described. […] Antagonist inhibitory potency was examined by measuring the concentration-dependence of rPTH(1–34)-stimulated cAMP accumulation in the presence and absence of antagonist.
(§4) Statistical comparison of two sample means was evaluated using the two-tailed Student's t-test. […] Antagonist inhibitory potency was quantified using the pA2, value, the negative logarithm of the concentration of antagonist that produces a two-fold decrease of agonist EC50. This was calculated using the following equation: pA2=((EC50/EC50′)−1)−log [antagonist]

[2] = target: T2, PTH2 receptor (Homo sapiens, UniProt P49190); experiment: cAMP accumulation in COS-7 cells transiently expressing the human PTH2 receptor; assay type: cell-based; set-up: expressed in transfected cells; host or cells: COS-7 (transient)
Text: as §1, §2, §3, §4

[3] = target: T2, PTH2 receptor; experiment: Radioligand displacement binding to HEK293 cell membranes expressing the human PTH2 receptor
[4] = target: T3, human PTH1 receptor (Homo sapiens, UniProt Q03431); experiment: cAMP accumulation in COS-7 cells transiently expressing the human PTH1 receptor; details: 20% human plasma
T3 sequence (Q03431 27-593): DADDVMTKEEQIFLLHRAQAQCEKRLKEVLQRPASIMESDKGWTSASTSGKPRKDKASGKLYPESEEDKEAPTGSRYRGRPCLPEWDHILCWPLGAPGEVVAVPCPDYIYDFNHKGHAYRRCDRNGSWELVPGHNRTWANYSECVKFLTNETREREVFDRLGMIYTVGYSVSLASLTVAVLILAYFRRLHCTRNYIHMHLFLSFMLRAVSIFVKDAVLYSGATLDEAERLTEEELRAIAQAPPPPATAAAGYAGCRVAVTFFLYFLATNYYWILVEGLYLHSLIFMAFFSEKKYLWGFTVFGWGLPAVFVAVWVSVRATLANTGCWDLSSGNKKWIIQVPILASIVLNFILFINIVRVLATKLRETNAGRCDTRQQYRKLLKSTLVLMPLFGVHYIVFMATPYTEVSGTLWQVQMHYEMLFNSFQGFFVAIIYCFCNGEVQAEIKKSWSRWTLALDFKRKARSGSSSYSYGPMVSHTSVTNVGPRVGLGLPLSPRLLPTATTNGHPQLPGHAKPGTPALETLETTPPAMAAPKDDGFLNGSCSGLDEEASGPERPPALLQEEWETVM

[5] = target: T3, human PTH1 receptor; experiment: Radioligand displacement binding to HEK293 cell membranes expressing the human PTH1 receptor; details: presence of 10 μM GTPγS
[6] = rat receptor response relative to human PTH2 receptor response measured in parallel
[7] = 1 μM antagonist against rPTH(1–34)-stimulated cAMP

T1 sequence (P70555 25-546): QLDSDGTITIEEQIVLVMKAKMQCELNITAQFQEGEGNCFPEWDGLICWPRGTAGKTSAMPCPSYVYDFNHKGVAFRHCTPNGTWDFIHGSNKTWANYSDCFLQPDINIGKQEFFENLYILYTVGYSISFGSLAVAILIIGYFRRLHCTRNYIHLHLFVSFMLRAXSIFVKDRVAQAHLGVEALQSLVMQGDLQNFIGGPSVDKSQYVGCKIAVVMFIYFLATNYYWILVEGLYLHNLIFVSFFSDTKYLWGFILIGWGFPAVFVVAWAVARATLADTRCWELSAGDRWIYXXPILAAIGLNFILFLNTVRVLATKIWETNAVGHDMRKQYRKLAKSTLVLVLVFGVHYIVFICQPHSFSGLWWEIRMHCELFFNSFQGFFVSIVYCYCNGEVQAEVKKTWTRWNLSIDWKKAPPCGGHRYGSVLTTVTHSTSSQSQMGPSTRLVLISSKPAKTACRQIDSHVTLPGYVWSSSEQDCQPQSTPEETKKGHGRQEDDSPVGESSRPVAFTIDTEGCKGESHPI
T2 sequence (P49190 25-550): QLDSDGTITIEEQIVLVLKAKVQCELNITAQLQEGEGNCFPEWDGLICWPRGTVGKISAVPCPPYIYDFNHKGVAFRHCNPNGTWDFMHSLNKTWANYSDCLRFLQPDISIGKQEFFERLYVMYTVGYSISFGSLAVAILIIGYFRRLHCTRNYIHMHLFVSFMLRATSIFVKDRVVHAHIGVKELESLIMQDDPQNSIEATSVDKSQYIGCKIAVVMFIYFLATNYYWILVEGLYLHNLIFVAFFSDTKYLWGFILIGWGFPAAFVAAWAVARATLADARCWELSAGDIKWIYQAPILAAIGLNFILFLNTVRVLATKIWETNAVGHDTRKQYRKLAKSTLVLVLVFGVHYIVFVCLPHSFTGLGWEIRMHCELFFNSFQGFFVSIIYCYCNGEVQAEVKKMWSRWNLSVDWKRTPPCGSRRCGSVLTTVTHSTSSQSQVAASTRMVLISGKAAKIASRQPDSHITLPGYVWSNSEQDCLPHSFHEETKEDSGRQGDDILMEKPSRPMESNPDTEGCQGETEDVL

Compound: CCCC[C@H](NC(=O)[C@H](CO)NC(=O)[C@H](CO)NC(=O)[C@H](CC(C)C)NC(=O)[C@H](Cc1c[nH]cn1)NC(=O)[C@H](CCCCN)NC(=O)CNC(=O)[C@H](CC(C)C)NC(=O)[C@H](CC(N)=O)NC(=O)[C@H](Cc1c[nH]cn1)NC(=O)[C@H](CCCC)NC(=O)[C@H](Cc1ccccc1)NC(=O)[C@H](CCC(N)=O)NC(=O)[C@@H](NC(=O)[C@H](CCC(=O)O)NC(=O)[C@H](CO)NC(=O)[C@@H](NC(=O)[C@H](C)N)C(C)C)[C@@H](C)CC)C(=O)N[C@@H](CCC(=O)O)C(=O)N[C@@H](CCCNC(=N)N)C(=O)N[C@H](C(=O)N[C@@H](CCC(=O)O)C(=O)N[C@@H](Cc1c[nH]c2ccccc12)C(=O)N[C@@H](CC(C)C)C(=O)N[C@@H](CCCNC(=N)N)C(=O)N[C@@H](CCCCN)C(=O)N[C@@H](CCCCN)C(=O)N[C@@H](CC(C)C)C(=O)N[C@@H](CCC(N)=O)C(=O)N[C@@H](CC(=O)O)C(=O)N[C@H](C(=O)N[C@@H](Cc1c[nH]cn1)C(=O)N[C@@H](CC(N)=O)C(=O)N[C@@H](Cc1ccc(O)cc1)C(N)=O)C(C)C)C(C)C [[Nle^8,18, Tyr^34]bPTH(1-34)] (H-AVSEIQF[Nle]HNLGKHLSS[Nle]ERVEWLRKKLQDVHNY-NH2; N-terminus and C-terminus assumed)
Emax ([1]; COS-7, read-out: Emax, % of response of hPTH2r to 1 μM hPTH(1-34), rat receptor response relative to human PTH2 receptor response measured in parallel): 5 ± 1%
Emax ([1]; read-out: Emax, % of response of rPTH2r to 3 μM rPTH(1-34), intrinsic activity, COS-7): 19 ± 3%
Emax ([2]; read-out: Emax, % of response to 1 μM hPTH(1-34), intrinsic activity, COS-7): 76 ± 7%

Compound: CCCC[C@H](NC(=O)[C@H](CCCNC(=N)N)NC(=O)[C@H](CCC(=O)O)NC(=O)[C@@H](NC(=O)[C@H](CO)NC(=O)[C@H](C)NC(=O)[C@H](CC(C)C)NC(=O)[C@H](Cc1c[nH]cn1)NC(=O)[C@H](CCCCN)NC(=O)CNC(=O)[C@H](CC(C)C)NC(=O)[C@H](CC(N)=O)NC(=O)[C@H](Cc1c[nH]cn1)NC(=O)[C@H](CCCC)NC(=O)[C@H](CC(C)C)NC(=O)[C@H](CCC(N)=O)NC(=O)[C@@H](NC(=O)[C@H](CCC(=O)O)NC(=O)[C@H](CO)NC(=O)[C@@H](NC(=O)[C@H](C)N)C(C)C)[C@@H](C)CC)C(C)C)C(=O)N[C@@H](CCC(N)=O)C(=O)N[C@@H](Cc1c[nH]c2ccccc12)C(=O)N[C@@H](CC(C)C)C(=O)N[C@@H](CCCNC(=N)N)C(=O)N[C@@H](CCCCN)C(=O)N[C@@H](CCCCN)C(=O)N[C@@H](CC(C)C)C(=O)N[C@@H](CCC(N)=O)C(=O)N[C@@H](CC(=O)O)C(=O)N[C@H](C(=O)N[C@@H](Cc1c[nH]cn1)C(=O)N[C@@H](CC(N)=O)C(=O)N[C@@H](Cc1ccc(O)cc1)C(N)=O)C(C)C [[Nle^8,21, Tyr^34]rPTH(1–34), [Nle^8,21, Tyr^34]rPTH(1–34) amide]
IC50 [3]: 1.1 nM
shift (increase) of IC50 produced by 10 μM GTPγS ([3]; centrifugation assay, [125I]TIP39): 1.5 fold

Compound: PTHrP(1-34)
Emax, % of response of rPTH2r to 3 μM rPTH(1-34) ([1]; intrinsic activity, COS-7): 14 ± 1%
Emax, % of response of hPTH2r to 1 μM hPTH(1-34) [1, 6]: 7 ± 3%
higher potency for the rat receptor than the human receptor ([1]; rat vs human PTH2 receptor EC50): 14 fold
Emax, % of response to 1 μM hPTH(1-34) ([2]; intrinsic activity, COS-7): 25 ± 3%

Compound: hPTH(1-34)
Emax, % of response of rPTH2r to 3 μM rPTH(1-34) ([1]; intrinsic activity, COS-7): 43 ± 4%
Emax, % of response of hPTH2r to 1 μM hPTH(1-34) [1, 6]: 22 ± 7%
Emax, % of response to 1 μM hPTH(1-34) ([2]; intrinsic activity, COS-7): 100%

Compound: hPTH(1-84)
Emax, % of response of rPTH2r to 3 μM rPTH(1-34) ([1]; intrinsic activity, COS-7): 42 ± 5%
Emax, % of response of hPTH2r to 1 μM hPTH(1-34) [1, 6]: 15 ± 4%
Emax, % of response to 1 μM hPTH(1-34) ([2]; intrinsic activity, COS-7): 79 ± 1%

Results, then the compound that gave them:

effect of human plasma on antagonist potency [4]: did not reduce the antagonist potency
Compound: PTHrP(7–34) amide

effect of human plasma on antagonist potency [4]: did not reduce the antagonist potency
difference of IC50 relative to TIP(7–39) [5]: 7.3 fold
Compound: [D-Tryp^12, Tyr^34]bPTH(7–34) amide [[D-Tryp^12, Tyr^34]PTH(7–34)]

pA2 [1, 7]: 6.5±0.2
pA2 as concentration [1, 7]: 310 nM
basal cAMP accumulation, % of basal response in the absence of antagonist ([1]; 1 μM antagonist, no rPTH(1–34)): 104±11%
pA2 [2, 7]: 6.5±0.1
pA2 as concentration [2, 7]: 320 nM
basal cAMP accumulation, % of basal response in the absence of antagonist ([2]; 1 μM antagonist, no rPTH(1–34)): 110±16%
Compound: [Nle^8,18, D-Tryp^12, Tyr^34]bPTH(7–34) amide
